Tests used:
Assay type in all cases: cell-based, murine
[1] = tested on: SSPN mRNA; assay: siRNA-mediated knockdown of SSPN in mdx myotubes, SSPN mRNA
Protocol: RNA from myotubes treated for 48 hrs was extracted from cells using Trizol-based (Thermo Fisher Scientific) phase separation, Chomczynski et al., Biotechniques. 1993; 15(3):532-4, 6-7. RNA concentrations were determined using a NanoDrop 1000 (Thermo Fisher Scientific) and 750 ng of RNA in a 20 Id reaction was reverse transcribed using iScript cDNA synthesis (Bio-Rad) with the following cycling conditions: 25° C. for 5 mins, 42° C. for 30 mins, 85° C. for 5 mins. For mouse qPCR, SsoFast EvaGreen Supermix (Bio-Rad), 400 nM of each optimized forward and reverse primer (SSPN F: 5′ […] 3′, SSPN R: 5′ […] 3′, BACT F: 5′ […] 3′, BACT R: 5′ […] 3′), and cDNA corresponding to 37.5 ng RNA were used to amplify cDNA measured by QuantStudio 5 Real-Time PCR System (Thermo Fisher Scientific) with the following reaction conditions: 55° C. for 2 mins, 95° C. for 2 mins, 40 cycles of 95° C. for 10 seconds and 62° C. for 30 seconds, and dissociation stage. For qPCR of human samples, TaqMan assays were used to quantify SSPN (assay ID Hs01025520m 1) and ACTB (assay ID Hs01060665_g1) with the following reaction conditions: 50° C. for 2 mins, 95° C. for 10 mins, 40 cycles of 95° C. for 15 seconds and 62° C. for 1 minute. […] Data was analyzed using the ddCT method and normalized to reference gene ACTB with vehicle-treated samples serving as the calibrator (relative expression of vehicle control=1). […]

[2] = tested on: H2K mdx myotubes; assay: Differentiation of mdx myotubes (fusion index, MYOG gene expression); settings: mdx myotubes, 1, 5 and 10 μM
[3] = tested on: mdx myotubes; assay: Membrane stability assay (creatine kinase release after osmotic shock); settings: for CK release after osmotic shock: 5 μM
Protocol: The membrane stability assay was modified from previously described methods. The solutions for osmotic shock were prepared from a base solution containing 5 mM HEPES, 5 mM KCl, 1 mM MgCl2, 5 mM NaCl, 1.2 mM CaCl2), and 1 mM glucose. Sucrose was added to the base solutions to reach osmolarities of 50, 80, 100, 280, and 300 mosmol. The actual osmolarity was determined using a VAPRO vapor pressure osmometer (Wescor Inc.) Myotubes were treated for 48 hours and at day 4 of differentiation were subjected to 20 mins of osmotic shock at 37° C. using 28.5 to 223.5 milliosmole (mosmol) solutions. The supernatant was collected and centrifuged to separate cell debris. Adherent cells were trypsinized and pelleted before lysis with water and 3 freeze-thaw cycles. The Creatine Kinase Assay (Sekisui Diagnostics) was used to measure creatine kinase (CK) levels in both the supernatant and lysate fractions. In a 96-well plate, 4 μl of each sample and 140 μl of reagent was loaded per well in triplicate. The U/L of CK was calculated as follows: (mOD/min)(total volume in mL)(dilution factor)/(6.22M-lcm-1)(light path in cm)(sample volume in mL). The percent CK release was calculated as follows: CKextracellular/(CKextracellular+CKintracellular)*100.
The assay entails subjecting myotubes to osmotic shock, which causes cell swelling and membrane damage, allowing for intracellular CK to be released from the cell into the surrounding medium (FIG. 5a).
To assess the effect of SSPN knockdown on membrane stability in the absence of any compound treatment, we transfected mdx myotubes with 24 and 48 nM of scramble and SSPN siRNA and subjected the cells to osmotic shock with 45 mosmol solutions. […] We treated mdx myotubes with 10 μM of OT-9 in parallel with 24 nM of scramble or SSPN siRNA for 48 hours prior to osmotic shock and discovered that depletion of SSPN increased the CK release from 6.5% to 8% (FIG. 5d).

CK release after osmotic shock ([3]; 48 hours, 28.5 mosmol solution): did not reduce CK release | CK release after osmotic shock ([3]; 48 hours, 45, 63 and 223.5 mosmol solutions): significantly reduced CK release
SMILES: CCN(CC)c1ccc2cc(C(=O)Nc3ccc(C(=O)N4CCCCCC4)cc3)c(=O)oc2c1 [OT-9]
SSPN mRNA levels under SSPN knockdown ([1]; 24 nM SSPN siRNA plus OT-9): increased SSPN mRNA levels | increase of SSPN mRNA relative to the vehicle control ([1]; 24 nM scramble siRNA plus 1, 5 or 10 μM OT-9): up to 1.4 fold | MYOG gene expression [2]: slight increase | fusion index [2]: slight increase | CK release ([3]; 10 μM OT-9 with 24 nM SSPN siRNA, 48 hours): 8% | CK release ([3]; 10 μM OT-9 with 24 nM scramble siRNA, 48 hours): 6.5%

Reference: patent publication US20230348394A1, “COMPOSITIONS AND METHODS FOR TREATING MUSCULAR DYSTROPHIES” (The Regents of the University of California, priority 2020, published 2023)
